Data taken from US20020131953A1, “In situ langerhans cell vaccine” (UT SOUTHWESTERN MEDICAL CENTER, priority 2001, published 2002).

B1: MIP-1α (protein, UniProt P10147 24-92, looked up)
C-C motif chemokine 3: SLAADTPTACCFSYTSRQIPQNFIADYFETSSQCSKPGVIFLTKRSRQVCADPSEEWVQKYVSDLELSA
notes: chemokine tested for promoting migration of mature DC
B2: MIP-1γ (protein, UniProt P51670 22-122, looked up)
C-C motif chemokine 9: QITHATETKEVQSSLKAQQGLEIEMFHMGFQDSSDCCLSYNSRIQCSRFIGYFPTSGGCTRPGIIFISKRGFQVCANPSDRRVQRCIERLEQNSQPRTYKQ
notes: as for B1
B3: RANTES (protein, UniProt P13501 24-91, looked up)
C-C motif chemokine 5: SPYSSDTTPCCFAYIARPLPRAHIKEYFYTSGKCSNPAVVFVTRKNRQVCANPEKKWVREYINSLEMS
notes: as for B1

Experiments:
Spleen DC = experiment: In vitro Transwell migration of spleen DC toward chemokine; assay type: cell-based, BALB/c mice; conditions: for % specific migration: spleen cell migration, transwell, 2 hr incubation at 37° C.
Protocol: (§1) Several chemokines were tested in an in vitro transwell system for their ability to promote migration of mature DC, including MIP-1α, MIP-1γ, MCP-3, RANTES and MIP-3β. In vitro cell migration assays were performed by using 6.5 mm Transwell units (Costar, Cambridge, Mass.). Spleen DC or T cells prepared from BALB/c mice were placed in the upper chamber of the transwell system and chemokine (e.g., MIP-3β) was added to the lower chamber of the transwell system. After 2 hr incubation at 37° C., the migratory cells were harvested from the lower chambers, and the % DC (or T cell) migration was calculated by dividing the output CD11c^+ (or CD3^+) cells by the input CD11c^+ (or CD3^+) cells.

T cells = experiment: In vitro Transwell migration of T cells toward chemokine; assay type: cell-based, BALB/c mice; conditions: relative to mature DCs (FIG. 1a)
Protocol: as §1

T cell migration = experiment: Biological activity of MIP-3β released from EVA rods (T cell chemotaxis assay); assay type: cell-based; conditions: MIP-3β liberated from the EVA polymer, Day 3 samples tested at 33 or 100% (vol/vol)
Protocol: To determine whether the released MIP-3β was biologically active, the same samples as used above were tested at 33 or 100% (vol/vol) for their biological activities to promote T cell migration (FIG. 1e). DNFB-induced LC emigration was examined by counting the numbers of IA^+ and DEC205^+ epidermal cells after whole mount epidermal staining. See Mummert et al., 2000, J. Exp. Med. 192:769-779.

Langerhans cells (LC) = experiment: LC entrapment after subcutaneous rod implantation and DNFB painting; assay type: in vivo, BALB/c mice; conditions: 24 hours after DNFB painting over BSA rod implantation sites
Protocol: After 24 hr pre-incubation in PBS at 37° C., a MIP-3β or BSA rod was cut into 4 short pieces (2.5 mm length) and implanted subcutaneously into a mouse with 200 μl of PBS using a 20G1/2 needle.
In an attempt to induce LC maturation and elevate MIP-3β responsiveness, DNFB was applied over the implantation sites.

Molecule | % specific migration (Spleen DC) [%] | also measured
MIP-3β | 13.2 | concentrations promoting migration of mature DCs (Spleen DC; chemokine in lower chamber (FIG. 1a)): 3 to 10 ng/mL; potency in promoting migration of CD11c-positive splenic dendritic cell fractions (Spleen DC; compared among the chemokines tested): most potent; concentrations required for recruiting T cells (T cells): much higher concentrations were required; biological activity in the chemotaxis assay (T cell migration): significant biological activities
monocyte chemotactic protein-3 [MCP-3] | 18.2 | –
O=[N+]([O-])c1ccc(F)c([N+](=O)[O-])c1 [DNFB, dinitroflourobenzene] | – | reduction in surface LC densities (Langerhans cells (LC)): 25-30%
B1 | 8.2 | –
B2 | 5.4 | –
B3 | 9.1 | –
